Measurements: ChEMBL document CHEMBL4007475, “Green synthesis of novel spiro-indenoquinoxaline derivatives and their cholinesterases inhibition activity” (Bioorg Med Chem, 2017)

Legend:
Homo sapiens [1] = species on record: Homo sapiens; test: Selectivity index, ratio of IC50 for butyrylcholinesterase (unknown origin) to IC50 for acetylcholinesterase (unknown origin)
HepG2 = test: Cytotoxicity against human HepG2 cells after 48 hrs by MTT assay; format: cell-based; details: HepG2, 48 h
Cholinesterase = Cholinesterase (Homo sapiens, UniProt P06276); test: Inhibition of butyrylcholinesterase (unknown origin) using acetylthiocholine as substrate preincubated for 20 mins followed by substrate addition by Ellmans method
Sequence of Cholinesterase (P06276 whole entry): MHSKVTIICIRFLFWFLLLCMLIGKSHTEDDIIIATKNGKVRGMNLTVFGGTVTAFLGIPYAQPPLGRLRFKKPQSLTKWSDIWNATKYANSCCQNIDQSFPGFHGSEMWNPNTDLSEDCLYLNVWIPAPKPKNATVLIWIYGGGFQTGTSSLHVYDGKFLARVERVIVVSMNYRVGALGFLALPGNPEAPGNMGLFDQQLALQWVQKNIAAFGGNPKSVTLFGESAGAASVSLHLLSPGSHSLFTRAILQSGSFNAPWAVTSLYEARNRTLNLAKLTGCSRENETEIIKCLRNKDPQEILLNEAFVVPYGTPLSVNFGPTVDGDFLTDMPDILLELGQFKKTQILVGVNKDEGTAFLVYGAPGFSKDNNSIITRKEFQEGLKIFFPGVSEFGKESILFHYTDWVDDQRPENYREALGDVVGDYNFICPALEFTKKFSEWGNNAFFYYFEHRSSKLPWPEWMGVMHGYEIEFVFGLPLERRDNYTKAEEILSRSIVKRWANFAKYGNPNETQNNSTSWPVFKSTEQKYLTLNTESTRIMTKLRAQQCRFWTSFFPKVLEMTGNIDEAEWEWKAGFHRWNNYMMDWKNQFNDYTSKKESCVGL

Acetylcholinesterase = Acetylcholinesterase (Homo sapiens, UniProt P22303); test: Inhibition of acetylcholinesterase (unknown origin) using acetylthiocholine as substrate preincubated for 20 mins followed by substrate addition by Ellmans method
Sequence of Acetylcholinesterase (P22303 whole entry): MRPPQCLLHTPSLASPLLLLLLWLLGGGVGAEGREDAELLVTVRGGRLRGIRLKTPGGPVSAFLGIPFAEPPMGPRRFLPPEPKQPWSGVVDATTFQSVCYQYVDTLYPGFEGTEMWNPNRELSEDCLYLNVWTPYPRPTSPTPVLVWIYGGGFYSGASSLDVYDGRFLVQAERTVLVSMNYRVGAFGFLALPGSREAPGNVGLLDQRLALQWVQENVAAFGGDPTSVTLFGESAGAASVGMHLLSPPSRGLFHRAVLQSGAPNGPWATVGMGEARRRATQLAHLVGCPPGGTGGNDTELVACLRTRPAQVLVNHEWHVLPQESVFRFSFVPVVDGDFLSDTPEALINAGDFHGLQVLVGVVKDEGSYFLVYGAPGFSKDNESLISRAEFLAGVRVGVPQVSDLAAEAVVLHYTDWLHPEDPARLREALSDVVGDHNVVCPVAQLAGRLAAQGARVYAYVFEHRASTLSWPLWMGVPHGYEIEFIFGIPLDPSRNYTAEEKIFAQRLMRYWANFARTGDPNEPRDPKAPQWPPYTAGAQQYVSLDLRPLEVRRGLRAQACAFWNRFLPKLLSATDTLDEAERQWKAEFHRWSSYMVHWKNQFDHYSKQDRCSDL

Homo sapiens [2] = species on record: Homo sapiens; test: Selectivity index, ratio of IC50 for acetylcholinesterase (unknown origin) to IC50 for butyrylcholinesterase (unknown origin)
Homo sapiens [3] = species on record: Homo sapiens; test: Selectivity for acetylcholinesterase (unknown origin) over butyrylcholinesterase (unknown origin)

SMILES: N#CC1=C(N)N2CCCNC2=C([N+](=O)[O-])C12c1ccccc1-c1nc3ccccc3nc12 (stereo unspecified)
- Ratio IC50 (Homo sapiens [1]): 2.43
- IC50 (HepG2): 174 µM
- IC50 (Cholinesterase): 10.2 µM
- IC50 (Acetylcholinesterase): 4.2 µM
- Ratio IC50 (Homo sapiens [2]): 0.411

SMILES: N#CC1=C(N)N2CCCNC2=C([N+](=O)[O-])C12c1ccccc1-c1nc3ccc([N+](=O)[O-])cc3nc12 (stereo unspecified)
- Ratio IC50 (Homo sapiens [1]): 2.49
- IC50 (HepG2): 161 µM
- IC50 (Cholinesterase): 9.7 µM
- IC50 (Acetylcholinesterase): 3.9 µM
- Ratio IC50 (Homo sapiens [2]): 0.402

SMILES: COc1cc2c(cc1OC)C(=O)C(CC1CCN(Cc3ccccc3)CC1)C2 (stereo unspecified)
- Selectivity ratio (Homo sapiens [3]): 10000

SMILES: Cc1cc2nc3c(nc2cc1C)C1(C(C#N)=C(N)N2CCNC2=C1[N+](=O)[O-])c1ccccc1-3 (stereo unspecified)
- Ratio IC50 (Homo sapiens [1]): 1.11
- IC50 (HepG2): 176 µM
- IC50 (Cholinesterase): 7.3 µM
- IC50 (Acetylcholinesterase): 6.6 µM
- Ratio IC50 (Homo sapiens [2]): 0.904

SMILES: N#CC1=C(N)N2CCNC2=C([N+](=O)[O-])C12c1ccccc1-c1nc3ccccc3nc12 (stereo unspecified)
- Ratio IC50 (Homo sapiens [1]): 1.31
- IC50 (HepG2): 194 µM
- IC50 (Cholinesterase): 8.4 µM
- IC50 (Acetylcholinesterase): 6.4 µM
- Ratio IC50 (Homo sapiens [2]): 0.761

SMILES: Cc1cc2nc3c(nc2cc1C)C1(C(C#N)=C(N)N(Cc2ccccc2)C(NCc2ccccc2)=C1[N+](=O)[O-])c1ccccc1-3 (stereo unspecified)
- Ratio IC50 (Homo sapiens [1]): 1.53
- IC50 (HepG2): 174 µM
- IC50 (Cholinesterase): 8.9 µM
- IC50 (Acetylcholinesterase): 5.8 µM
- Ratio IC50 (Homo sapiens [2]): 0.651

SMILES: CC1(C)CNC2=C([N+](=O)[O-])C3(C(C#N)=C(N)N2C1)c1ccccc1-c1nc2ccccc2nc13 (stereo unspecified)
- Ratio IC50 (Homo sapiens [1]): 2.28
- IC50 (HepG2): 184 µM
- IC50 (Cholinesterase): 9.8 µM
- IC50 (Acetylcholinesterase): 4.3 µM
- Ratio IC50 (Homo sapiens [2]): 0.438

SMILES: N#CC1=C(N)N(Cc2ccccc2)C(NCc2ccccc2)=C([N+](=O)[O-])C12c1ccccc1-c1nc3ccc([N+](=O)[O-])cc3nc12 (stereo unspecified)
- Ratio IC50 (Homo sapiens [1]): 2.07
- IC50 (HepG2): 167 µM
- IC50 (Cholinesterase): 9.1 µM
- IC50 (Acetylcholinesterase): 4.4 µM
- Ratio IC50 (Homo sapiens [2]): 0.483

SMILES: Cc1cc2nc3c(nc2cc1C)C1(C(C#N)=C(N)N2CCCNC2=C1[N+](=O)[O-])c1ccccc1-3 (stereo unspecified)
- Ratio IC50 (Homo sapiens [1]): 1.67
- IC50 (HepG2): 171 µM
- IC50 (Cholinesterase): 9.5 µM
- IC50 (Acetylcholinesterase): 5.7 µM
- Ratio IC50 (Homo sapiens [2]): 0.6

SMILES: N#CC1=C(N)N2CCNC2=C([N+](=O)[O-])C12c1ccccc1-c1nc3ccc([N+](=O)[O-])cc3nc12 (stereo unspecified)
- Ratio IC50 (Homo sapiens [1]): 1.48
- IC50 (HepG2): 174 µM
- IC50 (Cholinesterase): 9.6 µM
- IC50 (Acetylcholinesterase): 6.5 µM
- Ratio IC50 (Homo sapiens [2]): 0.677

SMILES: CC1(C)CNC2=C([N+](=O)[O-])C3(C(C#N)=C(N)N2C1)c1ccccc1-c1nc2ccc([N+](=O)[O-])cc2nc13 (stereo unspecified)
- Ratio IC50 (Homo sapiens [1]): 2.81
- IC50 (HepG2): 169 µM
- IC50 (Cholinesterase): 10.1 µM
- IC50 (Acetylcholinesterase): 3.6 µM
- Ratio IC50 (Homo sapiens [2]): 0.356

SMILES: N#CC1=C(N)N(Cc2ccccc2)C(NCc2ccccc2)=C([N+](=O)[O-])C12c1ccccc1-c1nc3ccccc3nc12 (stereo unspecified)
- Ratio IC50 (Homo sapiens [1]): 1.62
- IC50 (HepG2): 190 µM
- IC50 (Cholinesterase): 8.6 µM
- IC50 (Acetylcholinesterase): 5.3 µM
- Ratio IC50 (Homo sapiens [2]): 0.616

SMILES: Cc1cc2nc3c(nc2cc1C)C1(C(C#N)=C(N)N2CC(C)(C)CNC2=C1[N+](=O)[O-])c1ccccc1-3 (stereo unspecified)
- Ratio IC50 (Homo sapiens [1]): 2.2
- IC50 (HepG2): 180 µM
- IC50 (Cholinesterase): 8.8 µM
- IC50 (Acetylcholinesterase): 4 µM
- Ratio IC50 (Homo sapiens [2]): 0.454
